In patent US20240262815A1, “HETEROARYL DERIVATIVE, METHOD FOR PREPARING SAME, AND PHARMACEUTICAL COMPOSITION COMPRISING SAME AS ACTIVE INGREDIENT” (VORONOI INC., priority 2021, published 2024):

System: SK-BR-3 cancer cells
Experiment: Inhibitory activity against proliferation of SK-BR-3 cancer cells (CellTiter-Glo)
Assay type: cell-based
Settings: ErbB2-overexpressing SK-BR-3 cells, 120 hours after treatment
Experimental: To evaluate the inhibitory activity of a compound according to the present invention against the proliferation of ErbB2-overexpressing cancer cells, the following experiment were performed.
10% FBS-added McCOY'S 5A was used for SK-BR-3 cancer cells. 20% FBS-added RPMI-1640 was used for BT-474 cancer cells. Transduced Ba/F3 cells were cultured in a RPMI-1640 medium to which 1 μg/ml puromycin (Invitrogen) was added.
48 hours before compound treatment, each type of the SK-BR-3 and BT-474 cells were seeded at 5,000 cells/well in a white clear bottom 96 well plate (Corning). The compound was diluted in dimethyl sulfoxide (SK-BR-3: 3-fold dilution, a total of 12 concentrations, BT-474: […], a total of 12 concentrations) and injected at 1 μl to have the final concentration of 0.2 nM to 5 μM. As for measurement of live cells, 120 hours after treatment with the compound, a CellTiter-Glo luminescent cell-viability reagent (Promega) was used to store the cells at room temperature for 10 minutes, followed by measurement of luminescence using a reader (SynergyNeo, Biotek). Each test was repeated three times.
The result values were calculated as a cell growth rate (%) compared to the control group. A graph was plotted using the GraphPad Prism version 8.3.0 program, and GI50 values were calculated.

SMILES	GI50 (Homo sapiens, SK-BR-3, 120 h) [nM]	GI50 [nM]
C=CC(=O)Nc1cc(Nc2cc(N3OCC[C@@H]3c3cccc(OCc4cccc(C)n4)c3)ncn2)c(OC)cc1N1CCN(C)CC1 [Example compound 99, (R)-N-(4-methoxy-2-(4-methylpiperazin-1-yl)-5-((6-(3-(3-((6-methylpyridin-2-yl)methoxy)phenyl)isoxazolidin-2-yl)pyrimidin-4-yl)amino)phenyl)acrylamide]	50 to 500	–
C=CC(=O)Nc1cc(Nc2cc(N3OCCC3c3ccc(Cl)c(OCc4cccc(F)c4)c3)ncn2)c(OC)cc1N1CCN(C)CC1 (centres unmarked) [Example compound 115, N-(5-((6-(3-(4-chloro-3-((3-fluorobenzyl)oxy)phenyl)isoxazolidin-2-yl)pyrimidin-4-yl)amino)-4-methoxy-2-(4-methylpiperazin-1-yl)phenyl)acrylamide]	50 to 500	–
C=CC(=O)Nc1cc(Nc2cc(N3OCCC3c3cccc(-c4cccn5ccnc45)c3)ncn2)c(OC)cc1N1CCN(C)CC1 (centres unmarked) [Example 203, N-(5-((6-(3-(3-(imidazo[1,2-a]-pyridin-8-yl)phen-yl)isoxazolidin-2-yl)pyrimidin-4-yl)amino)-4-meth-oxy-2-(4-methyl-piperazin-1-yl)-phenyl)acrylamide]	< 50	–
C=CC(=O)Nc1cc(Nc2cc(N3OCC[C@H]3c3cccc(-c4cccc(F)c4)c3)ncn2)c(OC)cc1N1CCN(C)CC1 [Example 241, (S)-N-(5-((6-(3-(3′-fluoro-[1,1′-biphenyl]-3-yl)-isoxazolidin-2-yl)-pyrimidin-4-yl)-amino)-4-methoxy-2-(4-methylpiper-azin-1-yl)phenyl)-acrylamide]	500 to 5000	–
C=CC(=O)Nc1cc(Nc2cc(N3OCCC3c3cccc(OCc4ccccn4)c3)ncn2)c(OC)cc1N1CC[C@@H](N(C)C)C1 (some centres unmarked) [Example compound 97]	< 50	–
C=CC(=O)Nc1cc(Nc2cc(N3OCCC3c3cccc(-c4cnn(C)c4)c3)ncn2)c(OC)cc1N1CCC(N2CCN(C3CC3)CC2)CC1 (centres unmarked) [Example 234, N-(2-(4-(4-cyclo-propylpiperazin-1-yl)piperidin-1-yl)-4-methoxy-5-((6-(3-(3-(1-methyl-1H-pyrazol-4-yl)-phenyl)isoxazol-idin-2-yl)pyrim-idin-4-yl)amino)-phenyl)acrylamide]	< 50	–
C=CC(=O)Nc1cc(Nc2cc(N3OCC[C@@H]3c3ccc(F)c(Oc4cccc(F)c4)c3)ncn2)c(OC)cc1N1CCN(C)CC1 [Example compound 153, (R)-N-(5-((6-(3-(4-fluoro-3-(3-fluorophenoxy)phenyl)isoxazolidin-2-yl)pyrimidin-4-yl)amino)-4-methoxy-2-(4-methylpiperazin-1-yl)phenyl)acrylamide]	50 to 500	–
C=CC(=O)Nc1cc(Nc2cc(N3OCCC3c3cccc(C#CC(C)(C)C)c3)ncn2)c(OC)cc1N1CCC(N2CCN(C3CC3)CC2)CC1 (centres unmarked) [Example compound 140, N-(2-(4-(4-cyclopropylpiperazin-1-yl)piperidin-1-yl)-5-((6-(3-(3-(3,3-dimethylbut-1-yn-1-yl)phenyl)isoxazolidin-2-yl)pyrimidin-4-yl)amino)-4-methoxyphenyl)acrylamide]	50 to 500	–
C=CC(=O)Nc1cc(Nc2cc(N3OCC[C@@H]3c3cccc(-c4ccccc4)c3)ncn2)c(OC)cc1N1CCC(N2CCN(C3CC3)CC2)CC1 [Example 190, (R)-N-(5-((6-(3-([1,1′-biphenyl]-3-yl)isoxazolidin-2-yl)pyrimidin-4-yl)-amino)-2-(4-(4-cyclopropylpiper-azin-1-yl)piper-idin-1-yl)-4-meth-oxyphenyl)acryl-amide]	< 50	–
C=CC(=O)Nc1cc(Nc2cc(N3OCCC3c3cccc(C#Cc4ccccc4)c3)ncn2)c(OC)cc1N1CCC(N2CCN(C3CC3)CC2)CC1 (centres unmarked) [Example compound 138, N-(2-(4-(4-cyclopropylpiperazin-1-yl)piperidin-1-yl)-4-methoxy-5-((6-(3-(3-(phenylethynyl)phenyl)isoxazolidin-2-yl)pyrimidin-4-yl)amino)phenyl)acrylamide]	50 to 500	–
C=CC(=O)Nc1cc(Nc2cc(N3OCCC3c3cccc(-c4ccc(C)s4)c3)ncn2)c(OC)cc1N1CCN(C)CC1 (centres unmarked) [Example 214, N-(4-methoxy-2-(4-methylpiper-azin-1-yl)-5-((6-(3-(3-(5-methyl-thiophen-2-yl)-phenyl)isoxazol-idin-2-yl)pyrim-idin-4-yl)amino)-phenyl)acrylamide]	50 to 500	–
C=CC(=O)Nc1cc(Nc2cc(N3OCC[C@@H]3c3cc(F)cc(-c4cccc(F)c4)c3)ncn2)c(OC)cc1N1CCC(N2CCN(C3CC3)[C@H](C)C2)CC1 [Example 206]	500 to 5000	–
C=CC(=O)Nc1cc(Nc2cc(N3OCC[C@H]3c3cccc(-c4cccc(F)c4)c3F)ncn2)c(OC)cc1N1CCC(N2CCN(C3CC3)CC2)CC1 [Example 251, (S)-N-(2-(4-(4-cyclopropylpiper-azin-1-yl)piper-idin-1-yl)-5-((6-(3-(2,3′-difluoro-[1,1′-biphenyl]-3-yl)-isoxazolidin-2-yl)-pyrimidin-4-yl)-amino)-4-methoxy-phenyl)acrylamide]	500 to 5000	–
C=CC(=O)Nc1cc(Nc2cc(N3OCCC3c3cccc(-c4cccc(C#N)c4)c3)ncn2)c(OC)cc1N1CCC(N2CCN(C3CC3)CC2)CC1 (centres unmarked) [Example 250, N-(5-((6-(3-(3′-cyano-[1,1′-biphen-yl]-3-yl)isoxazol-idin-2-yl)pyrim-idin-4-yl)amino)-2-(4-(4-cycloprop-ylpiperazin-1-yl)-piperidin-1-yl)-4-methoxyphenyl)-acrylamide]	< 50	–

The remaining lines, values ahead:

GI50 (Homo sapiens, SK-BR-3, 120 h) [nM]	GI50 [nM]	SMILES
< 50	–	C=CC(=O)Nc1cc(Nc2cc(N3OCCC3c3cccc(-c4cnc5ccnn5c4)c3)ncn2)c(OC)cc1N(C)CCN(C)C (centres unmarked) [Example 202, N-(2-((2-(dimethyl-amino)ethyl)-(methyl)amino)-4-methoxy-5-((6-(3-(3-(pyrazolo[1,5-a]pyrimidin-6-yl)-phenyl)isoxazol-idin-2-yl)pyrim-idin-4-yl)amino)-phenyl)acrylamide]
< 50	–	C=CC(=O)Nc1cc(Nc2cc(N3OCC[C@@H]3c3cc(F)cc(-c4cccc(F)c4)c3)ncn2)c(OC)cc1N(C)CCN(C)C [Example 208, (R)-N-(5-((6-(3-(3′,5-difluoro-[1,1′-biphenyl]-3-yl)-isoxazolidin-2-yl)-pyrimidin-4-yl)-amino)-2-((2-(dimethylamino)-ethyl)(methyl)-amino)-4-methoxy-phenyl)acrylamide]
–	50 to 500	C=CC(=O)Nc1cc(Nc2cc(N3OCCC3c3cccc(-c4cccc(F)c4)c3)ncn2)c(OC)cc1N(C)CCN(C)C (centres unmarked) [Example 212, N-(2-((2-(dimeth-yl-amino)ethyl)-(methyl)amino)-5-((6-(3-(3′-fluoro-[1,1′-biphenyl]-3-yl)isoxazolidin-2-yl)pyrimidin-4-yl)amino)-4-meth-oxyphenyl)acryl-amide]
< 50	–	C=CC(=O)Nc1cc(Nc2cc(N3OCC[C@@H]3c3cc(F)cc(-c4ncnn4C)c3)ncn2)c(OC)cc1N(C)CCN(C)C [Example 240, (R)-N-(2-((2-(dimethylamino)-ethyl)(methyl)-amino)-5-((6-(3-(3-fluoro-5-(1-methyl-1H-1,2,4-triazol-5-yl)phen-yl)-isoxazolidin-2-yl)pyrimidin-4-yl)-amino)-4-methoxy-phen-yl)acrylamide]
< 50	–	C=CC(=O)Nc1cc(Nc2cc(N3OCC[C@@H]3c3cccc(-c4cnc5ccnn5c4)c3)ncn2)c(OC)cc1N(C)CCN(C)C [Example 263, (R)-N-(2-((2-(dimethylamino)-ethyl)(methyl)-amino)-4-methoxy-5-((6-(3-(3-(pyr-azolo[1,5-a]pyrim-idin-6-yl)phenyl)-isoxazolidin-2-yl)-pyrimidin-4-yl)-amino)phenyl)-acrylamide]
< 50	–	C=CC(=O)Nc1cc(Nc2cc(N3OCC[C@@H]3c3cc(F)cc(OCc4ccccn4)c3)ncn2)c(OC)cc1N(C)CCN(C)C [Example 196, (R)-N-(2-((2-(dimethylamino)-ethyl)(methyl)-amino)-5-((6-(3-(3-fluoro-5-(pyr-idin-2-ylmethoxy)-phenyl)isoxazol-idin-2-yl)pyrim-idin-4-yl)amino)-4-methoxyphen-yl)acrylamide]
50 to 500	–	C=CC(=O)Nc1cc(Nc2cc(N3OCC[C@@H]3c3ccc(F)c(Oc4cccc(C(F)(F)F)c4)c3)ncn2)c(OC)cc1N(C)CCN(C)C [Example 260, (R)-N-(2-((2-(dimethylamino)-ethyl)(methyl)-amino)-5-((6-(3-(4-fluoro-3-(3-(trifluoromethyl)-phenoxy)phenyl)-isoxazolidin-2-yl)-pyrimidin-4-yl)-amino)-4-methoxy-phenyl)acrylamide]
< 50	–	C=CC(=O)Nc1cc(Nc2cc(N3OCC[C@@H]3c3cc(F)cc(-c4cccc(N(C)C)c4)c3)ncn2)c(OC)cc1N(C)CCN(C)C [Example 239]
< 50	–	C=CC(=O)Nc1cc(Nc2cc(N3OCC[C@@H]3c3cc(F)cc(-c4cccc5ncnn45)c3)ncn2)c(OC)cc1N(C)CCN(C)C [Example 210, (R)-N-(5-((6-(3-(3-([1,2,4]triazolo-[1,5-a]pyridin-5-yl)-5-fluorophen-yl)isoxazolidin-2-yl)pyrimidin-4-yl)-amino)-2-((2-(dimethylamino)-ethyl)(methyl)-amino)-4-methoxy-phenyl)acrylamide]
